In brackets after ≈: the same amount, converted by molar mass.
Experiments:
Escherichia coli [1] = test: Potentiation of rifampicin induced antibacterial activity in Escherichia coli ATCC 25922 assessed as rifampicin MIC at 0.125 ug/ml incubated for 18 to 24 hrs by broth microdilution method (reference value: 2 ug/ml); type: functional; details: dose 0.125 µg/ml, time 18-24 hrs
[2] = Half life in overnight fasted Sprague-Dawley rat at 4 mg/kg, ip measured for 24 hrs by LC-MS/MS analysis; type: ADME, organism-based; details: in vivo
Escherichia coli [3] = test: Potentiation of rifampicin induced antibacterial activity in Escherichia coli ATCC 25922 assessed as rifampicin MIC at 0.004 ug/ml incubated for 18 to 24 hrs by broth microdilution method (reference value: 2 ug/ml); type: functional; details: dose 0.004 µg/ml, time 18-24 hrs
[4] = tested on: Staphylococcus epidermidis; test: Antibacterial activity against methicillin resistant Staphylococcus epidermidis clinical isolate 19-5 assessed as inhibition of bacterial growth incubated for 18 to 24 hrs by broth microdilution method; type: functional; details: time 18-24 hrs
Escherichia coli [5] = test: Potentiation of rifampicin induced antibacterial activity in Escherichia coli ATCC 25922 assessed as rifampicin MIC at 0.25 ug/ml incubated for 18 to 24 hrs by broth microdilution method (reference value: 2 ug/ml); type: functional; details: dose 0.25 µg/ml, time 18-24 hrs
[6] = Plasma protein binding in human at 2 uM incubated for 6 hrs by equilibrium dialysis based LC-MS/MS analysis; type: ADME, cell-free; details: read-out: PPB (converted)
[7] = Acute toxicity in ICR mouse administered into tail vein and measured twice daily over 1 week; details: in vivo, route iv, time 1 weeks
Pseudomonas aeruginosa [8] = test: Antibacterial activity against Pseudomonas aeruginosa clinical isolate 19-1 assessed as inhibition of bacterial growth incubated for 18 to 24 hrs by broth microdilution method; type: functional; details: time 18-24 hrs
Escherichia coli [9] = test: Potentiation of rifampicin induced antibacterial activity in Escherichia coli ATCC 25922 assessed as rifampicin MIC at 0.015 ug/ml incubated for 18 to 24 hrs by broth microdilution method (reference value: 2 ug/ml); type: functional; details: dose 0.015 µg/ml, time 18-24 hrs
Pseudomonas aeruginosa [10] = test: Antibacterial activity against Pseudomonas aeruginosa ATCC 27853 assessed as inhibition of bacterial growth incubated for 18 to 24 hrs by broth microdilution method; type: functional; details: time 18-24 hrs
Escherichia coli [11] = test: Potentiation of rifampicin induced antibacterial activity in Escherichia coli ATCC 25922 assessed as rifampicin MIC at 0.03 ug/ml incubated for 18 to 24 hrs by broth microdilution method (reference value: 2 ug/ml); type: functional; details: dose 0.03 µg/ml, time 18-24 hrs
Staphylococcus aureus = test: Antibacterial activity against methicillin resistant Staphylococcus aureus ATCC 33591 assessed as inhibition of bacterial growth incubated for 18 to 24 hrs by broth microdilution method; type: functional; details: time 18-24 hrs
Escherichia coli [12] = test: Antibacterial activity against Escherichia coli ATCC 25922 assessed as inhibition of bacterial growth incubated for 18 to 24 hrs by broth microdilution method; type: functional; details: time 18-24 hrs

CCCCCCC[C@@H](O)CC(=O)N[C@H](CCN)C(=O)N[C@H]1CCNC(=O)[C@H]([C@@H](C)O)NC(=O)[C@H](CCN)NC(=O)[C@H](CCN)NC(=O)[C@H]([C@@H](C)O)NC(=O)[C@@H](Cc2ccccc2)NC(=O)[C@H](CCN)NC1=O
MIC (Escherichia coli [1]): ≤ 0.06 µg/mL | half-life [2]: 3.7 h | MIC (Escherichia coli [3]): 0.5 µg/mL | MIC [4]: 64 µg/mL (≈ 62.7 µM) | MIC (Escherichia coli [5]): ≤ 0.06 µg/mL | fraction unbound at 6 h, 2 µM [6]: 0.147 | LD50 at 168 h [7]: 12.4 mg/kg | MIC (Pseudomonas aeruginosa [8]): 0.5 µg/mL (≈ 0.49 µM) | MIC (Escherichia coli [9]): 0.125 µg/mL | MIC (Pseudomonas aeruginosa [10]): 0.25 µg/mL (≈ 0.245 µM) | MIC (Escherichia coli [11]): ≤ 0.06 µg/mL | MIC (Staphylococcus aureus): > 64 µg/mL | MIC (Escherichia coli [12]): 4 µg/mL (≈ 3.92 µM)

From ChEMBL document CHEMBL5380795, “Design, Synthesis, and Bioactivity Investigation of Cyclic Lipopeptide Antibiotics Containing Eight to Nine Amino Acids” (J Med Chem, 2023)
